Results from patent US9663460B2, “Sulfur derivatives as chemokine receptor modulators” (ALLERGAN, INC., priority 2010, dated 2017).

target: CCR2 (Homo sapiens (Human), UniProt P41597); experiment: Calcium activity assayed on the FLIPR Tetra in HEK-Gqi5 cells stably expressing CCR2; type: cell-based; conditions: FLIPR Tetra calcium assay
Description: HEK-Gqi5 cells stably expressing CCR2 were cultured in (DMEM high glucose, 10% FBS, 1% PSA, 400 μg/ml geneticin and 50 μg/ml hygromycin. Appropriate positive control chemokines (MCP-1, MIP1A or RANTES) was used as the positive control agonist for screening compound-induced calcium activity assayed on the FLIPR^Tetra. The drug plates were prepared in 384-well microplates using the EP3 and the MuItiPROBE robotic liquid handling systems. Compounds were synthesized and tested for CCR^2 activity.

CCR2, sequence (P41597 whole entry, species assumed): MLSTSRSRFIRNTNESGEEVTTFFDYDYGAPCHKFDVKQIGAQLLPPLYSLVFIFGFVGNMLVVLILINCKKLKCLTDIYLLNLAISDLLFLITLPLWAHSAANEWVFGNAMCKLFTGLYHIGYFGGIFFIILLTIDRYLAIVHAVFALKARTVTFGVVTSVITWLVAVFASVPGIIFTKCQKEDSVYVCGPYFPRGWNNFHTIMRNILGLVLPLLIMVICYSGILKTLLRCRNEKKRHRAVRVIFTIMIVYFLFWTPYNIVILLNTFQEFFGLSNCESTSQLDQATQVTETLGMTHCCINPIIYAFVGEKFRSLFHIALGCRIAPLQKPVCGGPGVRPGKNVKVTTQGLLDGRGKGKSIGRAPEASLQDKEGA

Compound	CCR2 % ANTAGONISM	IC50
O=[N+]([O-])c1cccc([S+]([O-])c2ccc(Cl)cc2NS(=O)(=O)c2ccc(Cl)c(C(F)(F)F)c2)c1 (stereo not shown)	85%	0.509 µM
CN(C)C(=O)C[S+]([O-])c1ccc(Cl)cc1NS(=O)(=O)c1ccc(Cl)c(C(F)(F)F)c1 (stereo not shown) [2-{[4-chloro-2-({[4-chloro-3-(trifluoromethyl)phenyl]sulfonyl}amino)phenyl]sulfinyl}-N,N-dimethylacetamide]	100%	0.268 µM
CNC(=O)C[S+]([O-])c1ccc(Cl)cc1NS(=O)(=O)c1ccc(Cl)c(C(F)(F)F)c1 (stereo not shown) [2-{[4-chloro-2-({[4-chloro-3-(trifluoromethyl)phenyl]sulfonyl}amino)phenyl]sulfinyl}-N-methylacetamide]	91%	0.329 µM
CN(C)C(=O)CS(=O)(=O)c1ccc(Cl)cc1NS(=O)(=O)c1ccc(Cl)c(C(F)(F)F)c1 [2-{[4-chloro-2-({[4-chloro-3-(trifluoromethyl)phenyl]sulfonyl}amino)phenyl]sulfonyl}-N,N-dimethylacetamide]	98%	0.462 µM
CNC(=O)CS(=O)(=O)c1ccc(Cl)cc1NS(=O)(=O)c1ccc(Cl)c(C(F)(F)F)c1 [2-{[4-chloro-2-({[4-chloro-3-(trifluoromethyl)phenyl]sulfonyl}amino)phenyl]sulfonyl}-N-methylacetamide]	96%	0.469 µM
CN(C)C(=O)CSc1ccc(Cl)cc1NS(=O)(=O)c1ccc(Cl)c(C(F)(F)F)c1 [2-{[4-chloro-2-({[4-chloro-3-(trifluoromethyl)phenyl]sulfonyl}amino)phenyl]thio}-N,N-dimethylacetamide]	92%	0.118 µM
C[S+]([O-])c1ccc(Cl)cc1NS(=O)(=O)c1ccc(Cl)c(Cl)c1 (stereo not shown) [3,4-dichloro-N-[5-chloro-2-(methylsulfinyl)phenyl]benzenesulfonamide]	87%	0.044 µM
CN(C)C(=O)CC[S+]([O-])c1ccc(Cl)cc1NS(=O)(=O)c1cc2ccccc2o1 (stereo not shown) [3-({2-[(1-benzofuran-2-ylsulfonyl)amino]-4-chlorophenyl}sulfinyl)-N,N-dimethylpropanamide]	104%	0.16 µM
CN(C)C(=O)CCS(=O)(=O)c1ccc(Cl)cc1NS(=O)(=O)c1cc2ccccc2o1 [3-({2-[(1-benzofuran-2-ylsulfonyl)amino]-4-chlorophenyl}sulfonyl)-N,N-dimethylpropanamide]	99%	0.076 µM
CN(C)C(=O)CCSc1ccc(Cl)cc1NS(=O)(=O)c1cc2ccccc2o1 [3-({2-[(1-benzofuran-2-ylsulfonyl)amino]-4-chlorophenyl}thio)-N,N-dimethylpropanamide]	100%	0.146 µM

More lines, now with the values ahead:

CCR2 % ANTAGONISM	IC50	Compound
93%	1.48 µM	CN(C)C(=O)CC[S+]([O-])c1ccc(Cl)cc1NS(=O)(=O)c1ccc(F)cc1F (stereo not shown) [3-[(4-chloro-2-{[(2,4-difluorophenyl)sulfonyl]amino}phenyl)sulfinyl]-N,N-dimethylpropanamide]
89%	1.58 µM	CN(C)C(=O)CCS(=O)(=O)c1ccc(Cl)cc1NS(=O)(=O)c1ccc(F)cc1F [3-[(4-chloro-2-{[(2,4-difluorophenyl)sulfonyl]amino}phenyl)sulfonyl]-N,N-dimethylpropanamide]
43%	2.15 µM	CN(C)C(=O)CCSc1ccc(Cl)cc1NS(=O)(=O)c1ccc(F)cc1F [3-[(4-chloro-2-{[(2,4-difluorophenyl)sulfonyl]amino}phenyl)thio]-N,N-dimethylpropanamide]
99%	0.221 µM	CN(C)C(=O)CC[S+]([O-])c1ccc(Cl)cc1NS(=O)(=O)c1ccc(Cl)cc1F (stereo not shown) [3-[(4-chloro-2-{[(4-chloro-2-fluorophenyl)sulfonyl]amino}phenyl)sulfinyl]-N,N-dimethylpropanamide]
